Measurements: patent US20160046618A1, “Cyclopropyl Fused Thiazin-2-Amine Compounds as Beta-Secretase Inhibitors and Methods of Use” (AMGEN INC., priority 2014, published 2016)

What was measured:
human recombinant BACE1 = human recombinant BACE1 (Homo sapiens (Human), UniProt P56817); assay: In vitro enzymatic BACE1 FRET assay; assay type: biochemical; conditions: BACE1 FRET enzyme assay; read-out: IC50 IP (μM) BACE1 enzyme
Summary of the method: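 Protease purified by Ni-NTA chromatography; start with FRET substrate (50 nM); incubate 1 h; quench with Tris to neutral pH; read fluorescence ex 488 / em 590 nm.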

[1] = test system: Aβ40 in conditioned medium of cells stably expressing Amyloid Precursor Protein (APP); assay: In vitro BACE-1 cell-based assay (Aβ40 sandwich ELISA); conditions: BACE1 cell-based assay; read-out: IC50 IP (μM) BACE1 cell
Summary of the method: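 APP-expressing cells treated 24 h at 37 °C with compound in 10-point dose response (top 100 μM or 10 μM, 0.1% DMSO final). Secreted Aβ40 in conditioned medium quantified by sandwich ELISA (pAb40 capture, biotinylated 6E10 detection, time-resolved europium fluorescence); IC50 from percent inhibition versus concentration.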

human recombinant BACE2 = human recombinant BACE2 (Homo sapiens (Human), UniProt Q9Y5Z0); assay: In vitro enzymatic BACE2 FRET assay; assay type: biochemical; conditions: BACE2 FRET enzyme assay; read-out: IC50 IP (μM) BACE2 enzyme
Description: These recombinant proteins were further purified using Ni-NTA affinity chromatography (Qiagen). […] This assay is effectively started by the addition of FRET substrate (50 nM) and the combination is incubated for one hour. The FRET assay is terminated by addition of Tris buffer, which raises the pH to neutrality, and the fluorescence is determined. The FRET substrate is a peptide with commercially available fluorophore and quencher, on opposite sides of the BACE cleavage site. Proteolytic cleavage of the FRET substrate releases quenching of fluorescence (excitation 488 nm and emission 590 nm).

Recombinant Cat D = Recombinant Cat D (Homo sapiens (Human), UniProt P07339); assay: In vitro enzymatic Cathepsin D (Cat D) FRET assay; assay type: biochemical; conditions: Cathepsin D FRET enzyme assay; read-out: IC50 IP (μM) CatD
Summary of the method: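 Recombinant Cat D expressed in CHO cells, assayed in 0.05 M citrate pH 3.5 with 5 mM CHAPS and 10% DMSO final. Reaction started with 20 nM FRET peptide substrate, incubated one hour, then stopped by Tris buffer to neutral pH; fluorescence read at ex 500/em 580 nm.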

Sequence of human recombinant BACE1 (P56817 46-501): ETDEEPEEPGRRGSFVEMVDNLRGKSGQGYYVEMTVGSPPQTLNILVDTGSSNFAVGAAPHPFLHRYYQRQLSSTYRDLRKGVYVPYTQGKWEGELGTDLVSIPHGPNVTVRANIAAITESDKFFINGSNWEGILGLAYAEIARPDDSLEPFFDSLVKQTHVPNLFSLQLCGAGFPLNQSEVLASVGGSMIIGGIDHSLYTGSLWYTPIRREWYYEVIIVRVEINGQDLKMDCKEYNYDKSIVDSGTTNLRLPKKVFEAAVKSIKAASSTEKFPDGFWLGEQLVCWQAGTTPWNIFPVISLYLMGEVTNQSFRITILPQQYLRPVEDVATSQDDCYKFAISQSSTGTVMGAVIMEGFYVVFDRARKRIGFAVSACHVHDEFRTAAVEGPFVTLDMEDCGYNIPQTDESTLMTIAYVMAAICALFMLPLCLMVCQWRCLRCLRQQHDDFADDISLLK
Sequence of human recombinant BACE2 (Q9Y5Z0 63-518): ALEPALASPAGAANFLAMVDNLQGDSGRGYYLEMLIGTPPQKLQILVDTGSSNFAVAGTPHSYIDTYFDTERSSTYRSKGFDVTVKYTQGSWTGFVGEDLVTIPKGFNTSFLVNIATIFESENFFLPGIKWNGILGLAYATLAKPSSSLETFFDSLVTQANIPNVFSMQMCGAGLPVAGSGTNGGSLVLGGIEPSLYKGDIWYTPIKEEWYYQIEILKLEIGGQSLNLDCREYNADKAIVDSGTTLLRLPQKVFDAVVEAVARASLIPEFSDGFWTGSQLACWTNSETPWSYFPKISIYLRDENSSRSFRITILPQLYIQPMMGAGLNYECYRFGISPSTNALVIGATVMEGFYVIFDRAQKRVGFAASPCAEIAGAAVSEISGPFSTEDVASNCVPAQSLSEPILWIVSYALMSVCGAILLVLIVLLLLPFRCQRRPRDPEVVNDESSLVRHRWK
Sequence of Recombinant Cat D (P07339 65-412): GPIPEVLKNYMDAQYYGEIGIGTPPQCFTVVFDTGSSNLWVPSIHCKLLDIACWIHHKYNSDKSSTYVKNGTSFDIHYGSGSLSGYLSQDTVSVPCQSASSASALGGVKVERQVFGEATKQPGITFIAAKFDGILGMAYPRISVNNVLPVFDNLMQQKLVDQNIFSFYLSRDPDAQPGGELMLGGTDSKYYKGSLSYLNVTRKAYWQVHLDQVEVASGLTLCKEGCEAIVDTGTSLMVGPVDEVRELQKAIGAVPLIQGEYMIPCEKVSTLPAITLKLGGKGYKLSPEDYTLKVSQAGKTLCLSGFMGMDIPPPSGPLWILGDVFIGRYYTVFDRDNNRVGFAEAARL

IC50 (human recombinant BACE1)	IC50 [1]	IC50 (human recombinant BACE2)	IC50 (Recombinant Cat D)	SMILES
0.0003 µM	0.00035 µM	0.0201 µM	59.7 µM	C#CCOc1cnc(C(=O)Nc2cc(F)c(F)c([C@@]3(C)N=C(N)S[C@@]4(CO)C[C@H]43)c2)cn1 [Example 61, N-(3-((1S,5S,6S)-3-amino-1-(hydroxymethyl)-5-methyl-2-thia-4-azabicyclo[4.1.0]hept-3-en-5-yl)-4,5-difluorophenyl)-5-(2-propyn-1-yloxy)-2-pyrazinecarboxamide]
0.0289 µM	0.14 µM	0.0885 µM	295 µM	COc1cnc2c(Nc3cc(F)c(F)c([C@@]4(CF)N=C(N)S[C@H]5C[C@H]54)c3)nccc2n1 [Example 62, N-(3-((1S,5S,6S)-3-amino-5-(fluoromethyl)-2-thia-4-azabicyclo[4.1.0]hept-3-en-5-yl)-4,5-difluorophenyl)-2-methoxypyrido[3,4-b]pyrazin-5-amine]
0.137 µM	4.65 µM	3.75 µM	494 µM	CC(C)Oc1cnc2c(Nc3cc(F)c(F)c([C@@]4(CF)N=C(N)S[C@H]5C[C@H]54)c3)nccc2n1 [Example 63, N-(3-((1S,5S,6S)-3-amino-5-(fluoromethyl)-2-thia-4-azabicyclo[4.1.0]hept-3-en-5-yl)-4,5-difluorophenyl)-2-(1-methylethoxy)pyrido[3,4-b]pyrazin-5-amine]
0.00448 µM	0.00281 µM	0.025 µM	268 µM	COc1cnc2c(Nc3cc(F)c(F)c([C@@]4(C)N=C(N)S[C@@]5(CF)C[C@H]54)c3)ncnc2c1 [Example 64, (1S,5S,6S)-5-(2,3-difluoro-5-((7-methoxypyrido[3,2-d]pyrimidin-4-yl)amino)phenyl)-1-(fluoromethyl)-5-methyl-2-thia-4-azabicyclo[4.1.0]hept-3-en-3-amine]
0.0133 µM	0.00781 µM	0.0836 µM	1230 µM	COC[C@]12C[C@H]1[C@@](C)(c1cc(Nc3ncnc4cc(OC)cnc34)cc(F)c1F)N=C(N)S2 [Example 65, N-(3-((1S,5S,6S)-3-amino-1-(methoxymethyl)-5-methyl-2-thia-4-azabicyclo[4.1.0]hept-3-en-5-yl)-4,5-difluorophenyl)-7-methoxypyrido[3,2-d]pyrimidin-4-amine]
0.0171 µM	0.0525 µM	0.132 µM	> 400 µM	COc1cnc2c(Nc3cc(F)c(F)c([C@@]4(CF)N=C(N)S[C@H]5C[C@H]54)c3)ncnc2c1 [Example 66, N-(3-((1S,5S,6S)-3-amino-5-(fluoromethyl)-2-thia-4-azabicyclo[4.1.0]hept-3-en-5-yl)-4,5-difluorophenyl)-7-methoxypyrido[3,2-d]pyrimidin-4-amine]
0.0152 µM	0.114 µM	0.00302 µM	939 µM	C[C@]1(c2cc(NC(=O)c3ccc(Cl)cn3)ccc2F)N=C(N)S[C@@H]2[C@H]1C2(F)F [Example 69, N-(3-((1R,5S,6R)-3-amino-7,7-difluoro-5-methyl-2-thia-4-azabicyclo[4.1.0]hept-3-en-5-yl)-4-fluorophenyl)-5-chloro-2-pyridinecarboxamide]
0.00116 µM	0.0035 µM	0.00247 µM	> 400 µM	Cc1cc(C#N)cnc1C(=O)Nc1cc(F)c(F)c([C@@]2(CF)N=C(N)S[C@@]3(CO)C[C@H]32)c1 [Example 70, N-(3-((1S,5S,6S)-3-amino-5-(fluoromethyl)-1-(hydroxymethyl)-2-thia-4-azabicyclo[4.1.0]hept-3-en-5-yl)-4,5-difluorophenyl)-5-cyano-3-methyl-2-pyridinecarboxamide]
0.00047 µM	0.00156 µM	0.0375 µM	329 µM	C#CCOc1ccc(C(=O)Nc2cc(F)c(F)c([C@@]3(C)N=C(N)S[C@@]4(CO)C[C@H]43)c2)nc1 [Example 71, N-(3-((1S,5S,6S)-3-amino-1-(hydroxymethyl)-5-methyl-2-thia-4-azabicyclo[4.1.0]hept-3-en-5-yl)-4,5-difluorophenyl)-5-(2-propyn-1-yloxy)-2-pyridinecarboxamide]
0.00911 µM	0.0177 µM	0.00296 µM	> 400 µM	COC[C@]12C[C@H]1[C@@](CF)(c1cc(Nc3ncnc4cc(Cl)cnc34)ccc1F)N=C(N)S2 [Example 73, N-(3-((1S,5S,6S)-3-amino-5-(fluoromethyl)-1-(methoxymethyl)-2-thia-4-azabicyclo[4.1.0]hept-3-en-5-yl)-4-fluorophenyl)-7-chloropyrido[3,2-d]pyrimidin-4-amine]
0.012 µM	0.0136 µM	0.0295 µM	> 400 µM	COc1cnc(C(=O)Nc2ccc(F)c([C@@]3(CF)N=C(N)S[C@@]4(CO)C[C@H]43)c2)c(C)n1 [Example 75, N-(3-((1S,5S,6S)-3-amino-5-(fluoromethyl)-1-(hydroxymethyl)-2-thia-4-azabicyclo[4.1.0]hept-3-en-5-yl)-4-fluorophenyl)-5-methoxy-3-methyl-2-pyrazinecarboxamide]
0.00095 µM	0.00271 µM	0.0174 µM	1490 µM	C#CCOc1cnc(C(=O)Nc2ccc(F)c([C@@]3(CF)N=C(N)S[C@@]4(CO)C[C@H]43)c2)c(C)n1 [Example 76, N-(3-((1S,5S,6S)-3-amino-5-(fluoromethyl)-1-(hydroxymethyl)-2-thia-4-azabicyclo[4.1.0]hept-3-en-5-yl)-4-fluorophenyl)-3-methyl-5-(2-propyn-1-yloxy)-2-pyrazinecarboxamide]
0.0047 µM	0.0217 µM	0.0461 µM	949 µM	C#CCOc1cnc(C(=O)Nc2cc(F)c(F)c([C@@]3(C)N=C(N)S[C@H]4C[C@H]43)c2)c(C)n1 [Example 77, N-(3-((1S,5S,6S)-3-amino-5-methyl-2-thia-4-azabicyclo[4.1.0]hept-3-en-5-yl)-4,5-difluorophenyl)-3-methyl-5-(2-propyn-1-yloxy)-2-pyrazinecarboxamide]
0.00464 µM	0.0917 µM	0.00126 µM	627 µM	Cc1cc(Cl)cnc1C(=O)Nc1cc(F)c(F)c([C@@]2(CF)N=C(N)S[C@H]3C[C@H]32)c1 [Example 78, N-(3-((1S,5S,6S)-3-amino-5-(fluoromethyl)-2-thia-4-azabicyclo[4.1.0]hept-3-en-5-yl)-4,5-difluorophenyl)-5-chloro-3-methyl-2-pyridinecarboxamide]
0.00489 µM	0.0284 µM	0.143 µM	> 400 µM	Cc1nc(OCC(F)(F)F)cnc1C(=O)Nc1ccc(F)c([C@@]2(CF)N=C(N)S[C@@]3(CO)C[C@H]32)c1 [Example 79, N-(3-((1S,5S,6S)-3-amino-5-(fluoromethyl)-1-(hydroxymethyl)-2-thia-4-azabicyclo[4.1.0]hept-3-en-5-yl)-4-fluorophenyl)-3-methyl-5-(2,2,2-trifluoroethoxy)-2-pyrazinecarboxamide]
0.00913 µM	0.00851 µM	0.0251 µM	> 400 µM	N#Cc1cnc2c(Nc3ccc(F)c([C@@]4(CF)N=C(N)S[C@@]5(CO)C[C@H]54)c3)ncnc2c1 [Example 80, 4-((3-((1S,5S,6S)-3-amino-5-(fluoromethyl)-1-(hydroxymethyl)-2-thia-4-azabicyclo[4.1.0]hept-3-en-5-yl)-4-fluorophenyl)amino)pyrido[3,2-d]pyrimidine-7-carbonitrile]
0.0219 µM	0.047 µM	0.0116 µM	1390 µM	COc1cnc(C(=O)Nc2cc(F)c(F)c([C@@]3(CF)N=C(N)S[C@H]4C[C@H]43)c2)c(C)c1 [Example 81, N-(3-((1S,5S,6S)-3-amino-5-(fluoromethyl)-2-thia-4-azabicyclo[4.1.0]hept-3-en-5-yl)-4,5-difluorophenyl)-5-methoxy-3-methyl-2-pyridinecarboxamide]
0.00046 µM	0.00092 µM	0.0138 µM	105 µM	C#CCOc1cnc(C(=O)Nc2cc(F)c(F)c([C@@]3(CF)N=C(N)S[C@@]4(CO)C[C@H]43)c2)cn1 [Example 83, N-(3-((1S,5S,6S)-3-amino-5-(fluoromethyl)-1-(hydroxymethyl)-2-thia-4-azabicyclo[4.1.0]hept-3-en-5-yl)-4,5-difluorophenyl)-5-(2-propyn-1-yloxy)-2-pyrazinecarboxamide]
0.00062 µM	0.00216 µM	0.0435 µM	1550 µM	CC#CCOc1cnc(C(=O)Nc2cc(F)c(F)c([C@@]3(C)N=C(N)S[C@@]4(CO)C[C@H]43)c2)c(C)c1 [Example 85, N-(3-((1S,5S,6S)-3-amino-1-(hydroxymethyl)-5-methyl-2-thia-4-azabicyclo[4.1.0]hept-3-en-5-yl)-4,5-difluorophenyl)-5-(2-butyn-1-yloxy)-3-methyl-2-pyridinecarboxamide]
